Assay results from patent publication US10005768B2, “Carboxamide derivatives and use thereof” (Purdue Pharma L.P., priority 2013, dated 2018).

Target: human Nav1.7 (Homo sapiens (Human), UniProt Q15858)
Assay: FLIPR sodium dye assay (CoroNa Green AM Na+ dye, primary fluorescence assay)
Type: cell-based
Conditions: recombinant Nav1.7/HEK293 cells
In short: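 HEK293 cells stably expressing human Nav1.7 α subunit (no β/γ subunits), loaded with 5 μM CoroNa Green Na+ dye in HEPES-buffered Hanks-type saline, pH 7.3. Na+ influx stimulated by 100 μM veratridine plus 10 μg/mL Leiurus scorpion venom; compounds tested at 20 μM down to 0.001 μM (10 points, 0.2% DMSO).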

human Nav1.7, sequence (Q15858 other isoform, or with tags, fused parts or gaps): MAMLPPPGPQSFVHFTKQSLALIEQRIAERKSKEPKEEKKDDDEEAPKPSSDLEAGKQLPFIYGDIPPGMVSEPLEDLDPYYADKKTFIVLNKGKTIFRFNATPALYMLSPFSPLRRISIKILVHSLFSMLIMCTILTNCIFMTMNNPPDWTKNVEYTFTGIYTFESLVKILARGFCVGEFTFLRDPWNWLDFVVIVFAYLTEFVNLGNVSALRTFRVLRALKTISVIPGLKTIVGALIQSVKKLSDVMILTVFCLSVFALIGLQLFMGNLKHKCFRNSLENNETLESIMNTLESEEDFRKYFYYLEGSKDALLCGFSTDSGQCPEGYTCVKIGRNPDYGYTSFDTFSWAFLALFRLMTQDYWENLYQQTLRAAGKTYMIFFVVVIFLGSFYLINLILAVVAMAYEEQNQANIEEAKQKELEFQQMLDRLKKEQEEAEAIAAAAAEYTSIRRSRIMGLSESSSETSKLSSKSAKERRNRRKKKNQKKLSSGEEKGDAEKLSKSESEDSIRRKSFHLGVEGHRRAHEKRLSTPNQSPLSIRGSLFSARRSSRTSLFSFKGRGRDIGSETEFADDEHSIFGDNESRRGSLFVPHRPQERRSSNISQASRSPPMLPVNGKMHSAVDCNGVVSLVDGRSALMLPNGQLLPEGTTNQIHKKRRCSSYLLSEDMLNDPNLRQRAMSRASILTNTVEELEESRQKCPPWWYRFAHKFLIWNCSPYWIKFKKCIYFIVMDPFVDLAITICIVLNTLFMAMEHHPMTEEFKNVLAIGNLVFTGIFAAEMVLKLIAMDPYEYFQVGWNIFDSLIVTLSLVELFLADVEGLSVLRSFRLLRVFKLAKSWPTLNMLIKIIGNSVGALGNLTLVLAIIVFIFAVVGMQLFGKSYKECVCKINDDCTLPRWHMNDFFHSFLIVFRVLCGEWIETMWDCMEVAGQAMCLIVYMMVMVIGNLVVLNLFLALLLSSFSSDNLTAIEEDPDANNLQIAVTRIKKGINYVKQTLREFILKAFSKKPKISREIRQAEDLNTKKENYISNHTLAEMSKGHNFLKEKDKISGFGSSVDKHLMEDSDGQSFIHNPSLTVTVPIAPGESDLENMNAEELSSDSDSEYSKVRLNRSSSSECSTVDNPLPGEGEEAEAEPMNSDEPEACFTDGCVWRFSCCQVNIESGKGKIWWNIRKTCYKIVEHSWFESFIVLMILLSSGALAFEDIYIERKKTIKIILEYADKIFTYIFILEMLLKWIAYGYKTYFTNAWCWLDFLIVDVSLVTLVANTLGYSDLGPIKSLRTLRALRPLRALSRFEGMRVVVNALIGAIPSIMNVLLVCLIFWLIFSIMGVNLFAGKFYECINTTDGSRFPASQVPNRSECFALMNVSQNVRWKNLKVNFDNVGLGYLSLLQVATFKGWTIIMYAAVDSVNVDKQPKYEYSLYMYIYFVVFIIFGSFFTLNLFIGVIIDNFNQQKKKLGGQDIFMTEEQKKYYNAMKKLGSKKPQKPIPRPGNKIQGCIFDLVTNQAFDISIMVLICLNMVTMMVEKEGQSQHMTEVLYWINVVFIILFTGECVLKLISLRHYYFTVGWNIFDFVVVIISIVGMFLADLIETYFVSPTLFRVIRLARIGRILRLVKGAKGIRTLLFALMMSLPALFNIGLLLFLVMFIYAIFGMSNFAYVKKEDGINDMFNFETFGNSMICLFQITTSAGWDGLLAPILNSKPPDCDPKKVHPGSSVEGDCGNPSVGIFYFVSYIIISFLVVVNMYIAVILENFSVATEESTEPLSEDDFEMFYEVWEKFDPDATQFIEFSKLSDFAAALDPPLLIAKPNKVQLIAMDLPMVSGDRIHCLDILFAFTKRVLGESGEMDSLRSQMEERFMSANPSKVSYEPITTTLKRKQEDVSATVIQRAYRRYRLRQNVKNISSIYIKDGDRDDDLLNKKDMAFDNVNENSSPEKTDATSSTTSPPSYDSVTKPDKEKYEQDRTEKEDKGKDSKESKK

SMILES	IC50 [µM]
N#Cc1ccc(OCc2cc(-c3cccc(C(N)=O)n3)ccc2Oc2ccc(F)cc2)cc1 [compound 105, 6-(3-((4-cyanophenoxy)methyl)-4-(4-fluorophenoxy)phenyl)picolinamide]	0.362 ± 0.095
NC(=O)c1cccc(-c2ccc(Oc3ccc(C(F)(F)F)c(CN4CCNC(=O)C4)c3)cc2)n1 [compound 106, 6-(4-(3-((3-oxopiperazin-1-yl)methyl)-4-(trifluoromethyl)-phenoxy)phenyl)picolinamide]	0.455 ± 0.059
OC[C@@H](O)c1cccc(-c2ccc(Oc3ccc(C(F)(F)F)cc3CN3CCCCC3)cc2)n1 [compound 107, (S)-1-(6-(4-(2-(piperidin-1-ylmethyl)-4-(trifluoromethyl)phenoxy)phenyl)pyridin-2-yl)ethane-1,2-diol]	0.174 ± 0.041
NC(=O)c1cccc(-c2ccc(Oc3ccc(C(F)(F)F)cc3CNC3CCCC3)cc2)n1 [compound 108, 6-(4-(2-((cyclopentylamino)-methyl)-4-(trifluoromethyl)-phenoxy)phenyl)picolinamide]	0.28 ± 0.009
CCN(CC)S(=O)(=O)c1cc(C(F)(F)F)ccc1Oc1ccc(-c2cccc(C(N)=O)n2)cc1 [compound 109, 6-(4-(2-(N,N-diethylsulfamoyl)-4-(trifluoromethyl)phenoxy)phenyl)picolinamide]	1.3 ± 0.056
NC(=O)c1cccc(-c2ccc(Oc3ccc(C(F)(F)F)cc3C(C(=O)N3CCCC3)N3CCCC3)cc2)n1 (stereo not drawn) [compound 111, 6-(4-(2-(2-oxo-1,2-di(pyrrolidin-1-yl)ethyl)-4-(trifluoromethyl)phenoxy)phenyl) picolinamide]	6.59 ± 0.321
NC(=O)c1cccc(-c2ccc(Oc3ccc(C(F)(F)F)cc3C(C(=O)N3CCCC3)N3CCNC(=O)C3)cc2)n1 (stereo not drawn) [compound 112, 6-(4-(2-(2-oxo-1-(3-oxopiperazin-1-yl)-2-(pyrrolidin-1-yl)ethyl)-4-(trifluoromethyl)phenoxy)phenyl) picolinamide]	> 20
CCN(CC)S(=O)(=O)c1cc(C(F)(F)F)ccc1Oc1ccc(-c2cccc([C@H](O)CO)n2)cc1 [compound 113, (S)-2-(4-(6-(1,2-dihydroxyethyl)pyridin-2-yl)phenoxy)-N,N-diethyl-5-(trifluoromethyl)benzenesulfonamide]	0.249 ± 0.016
NC(=O)c1cccc(-c2ccc(Oc3ccc(C(F)(F)F)cc3CNc3nccs3)cc2)n1 [compound 114, 6-(4-(2-((thiazol-2-ylamino)methyl)-4-(trifluoromethyl)phenoxy)phenyl) picolinamide]	2.01 ± 0.456
OC[C@H](O)c1ccnc(-c2ccc(Oc3ccc(C(F)(F)F)cc3CN3CCCC3)cc2)n1 [compound 115, (R)-1-(2-(4-(2-(pyrrolidin-1-ylmethyl)-4-(trifluoromethyl)phenoxy)phenyl)pyrimidin-4-yl)ethane-1,2-diol]	0.455 ± 0.067
OC[C@@H](O)c1ccnc(-c2ccc(Oc3ccc(C(F)(F)F)cc3CN3CCCC3)cc2)n1 [compound 116, (S)-1-(2-(4-(2-(pyrrolidin-1-ylmethyl)-4-(trifluoromethyl)phenoxy)phenyl)pyrimidin-4-yl)ethane-1,2-diol]	0.636 ± 0.065
CCN(C)Cc1cc(C(F)(F)F)ccc1Oc1ccc(-c2cccc(C(N)=O)n2)cc1 [compound 117, 6-(4-(2-((ethyl(methyl)amino)methyl)-4-(trifluoromethyl)phenoxy)phenyl) picolinamide]	0.066 ± 0.007
CCN(CC)Cc1cc(C(F)(F)F)ccc1Oc1ccc(-c2cccc(C(N)=O)n2)cc1 [compound 118, 6-(4-(2-((diethylamino)methyl)-4-(trifluoromethyl)phenoxy)phenyl) picolinamide]	0.118 ± 0.012
CCN(CCO)Cc1cc(C(F)(F)F)ccc1Oc1ccc(-c2cccc(C(N)=O)n2)cc1 [compound 119, 6-(4-(2-((ethyl(2-hydroxyethyl)amino)methyl)-4-(trifluoromethyl)phenoxy)phenyl) picolinamide]	0.59 ± 0.092
CCN(CCN(C)C)Cc1cc(C(F)(F)F)ccc1Oc1ccc(-c2cccc(C(N)=O)n2)cc1 [compound 120, 6-(4-(2-(((2-(dimethylamino)ethyl)(ethyl)amino)methyl)-4-(trifluoromethyl)phenoxy)phenyl) picolinamide]	0.578 ± 0.098
NC(=O)c1cccc(-c2ccc(Oc3ccc(C(F)(F)F)cc3CN3CCCC(C(N)=O)C3)cc2)n1 (stereo not drawn) [compound 121, 6-(4-(2-((3-carbamoylpiperidin-1-yl)methyl)-4-(trifluoromethyl)phenoxy)phenyl) picolinamide]	0.716 ± 0.09
COC(=O)c1cccc(-c2ccc(Oc3ccc(C(F)(F)F)cc3C(O)C#N)cc2)n1 (stereo not drawn) [compound 144, methyl 6-(4-(2-(cyano(hydroxy)methyl)-4-(trifluoromethyl)phenoxy)phenyl) picolinate]	3.79 ± 0.377
N#CC(N)c1cc(C(F)(F)F)ccc1Oc1ccc(-c2cccc(C(N)=O)n2)cc1 (stereo not drawn) [compound 145, 6-(4-(2-(amino(cyano)methyl)-4-(trifluoromethyl)phenoxy)phenyl) picolinamide]	3.34 ± 0.452
NC(=O)c1cccc(-c2ccc(Oc3ccc(C(F)(F)F)cc3/C=C3\SC(=O)NC3=O)cc2)n1 [compound 155, (Z)-6-(4-(2-((2,4-dioxothiazolidin-5-ylidene)methyl)-4-(trifluoromethyl)phenoxy)phenyl) picolinamide]	> 20
OC[C@@H](O)c1cccc(-c2ccc(Oc3ccc(F)cc3C(O)C(F)(F)F)cc2)n1 (stereo partly drawn) [compound 156, (1S)-1-(6-(4-(4-fluoro-2-(2,2,2-trifluoro-1-hydroxyethyl)-phenoxy)phenyl)pyridin-2-yl)ethane-1,2-diol]	1.29 ± 0.182
NC(=O)c1cccc(-c2ccc(Oc3ccc(C(F)(F)F)cc3C(=O)C(=O)N3CCCC3)cc2)n1 [compound 157, 6-(4-(2-(2-oxo-2-(pyrrolidin-1-yl)acetyl)-4-(trifluoromethyl)-phenoxy)phenyl)picolinamide]	2.71 ± 0.235
NC(=O)c1cccc(-c2ccc(Oc3ccc(C(F)(F)F)cc3C(O)C(=O)N3CCCC3)cc2)n1 (stereo not drawn) [compound 158, 6-(4-(2-(1-hydroxy-2-oxo-2-(pyrrolidin-1-yl)ethyl)-4-(trifluoromethyl)phenoxy)phenyl) picolinamide]	0.214 ± 0.029
NC(=O)c1cccc(-c2ccc(Oc3ccc(C(F)(F)F)cc3C(=O)O)cc2)n1 [compound 159, 2-(4-(6-carbamoylpyridin-2-yl)phenoxy)-5-(trifluoro-methyl)benzoic acid]	1.26 ± 0.135
NC(=O)c1cccc(-c2ccc(Oc3ccc(C(F)(F)F)cc3C(=O)N3CCCC3)cc2)n1 [compound 160, 6-(4-(2-(pyrrolidine-1-carbonyl)-4-(trifluoromethyl)phenoxy)phenyl)picolinamide]	2.85 ± 0.698
CN(CCO)C(=O)c1cc(C(F)(F)F)ccc1Oc1ccc(-c2cccc(C(N)=O)n2)cc1 [compound 161, 6-(4-(2-((2-hydroxyethyl)-(methyl)carbamoyl)-4-(trifluoromethyl)phenoxy)phenyl) picolinamide]	> 20
CN1CCN(C(=O)c2cc(C(F)(F)F)ccc2Oc2ccc(-c3cccc(C(N)=O)n3)cc2)CC1 [compound 162, 6-(4-(2-(4-methylpiperazine-1-carbonyl)-4-(trifluoromethyl)phenoxy)phenyl)picolinamide]	7.95 ± 0.402
CNC(=O)c1cc(C(F)(F)F)ccc1Oc1ccc(-c2cccc(C(N)=O)n2)cc1 [compound 163, 6-(4-(2-(methylcarbamoyl)-4-(trifluoromethyl)phenoxy)phenyl) picolinamide]	> 20
